Measured values published in US20160199434A1, “COMPOSITIONS AND METHODS FOR MODULATING DNA METHYLATION” (OHIO STATE INNOVATION FOUNDATION, priority 2013, published 2016).
“Also recorded” adds a separate entry of the source.

Experiments:
DNMT-3b [1] = test: DNMT-3b mRNA level by RT-PCR in PyMT tumor cells; assay type: cell-based, mouse; settings: PyMT tumor cells in culture
Protocol: (§1) Because DSP is regulated by ER/PR expression, and because late-stage PyMT tumors lose ER/PR-positivity and heavily metastasize to the lymph nodes and lungs (Lin et al., 2003), the effects of AKB-6899 on more global events that regulate gene expression was evaluated. PyMT tumor cells in culture were treated with DMSO or AKB-6899. Methylation-specific PCR for CpG islands in the desmoplakin promoter were performed. […] Trypan Blue confirmed no cell death in AKB-6899 treated cells when compared to control cells. The experiment was repeated and RNA was isolated from the cells. RT-PCR was performed and the regulation of DNA methyltransferases (DNMTs) was evaluated. […] (FIG. 1A). The decrease in mRNA levels of DNMT-1 and DNMT-3a increased the mRNA level of DSP (FIG. 4A) and increased desmoplakin protein expression (FIG. 5A).

[2] = test system: desmoplakin (DSP) gene promoter; test: Methylation-specific PCR of DSP promoter in MDA-MB-231 cells; assay type: cell-based, human
Protocol: FIGS. 3A-3E show the effect of AKB-6899 (25 μM) on methylation of the desmoplakin (DSP) gene promoter in PyMT breast cancer cells (3A), human MDA-MB-231 triple negative breast cancer cells (3B), human C8161.9 melanoma cells (3C), and human MCF-7 breast cancer cells (3D). In FIG. 3A, the DSP promoter was 100% unmethylated (AKB-6899) vs. 99.99% methylated (vehicle). In FIG. 3B, the DSP promoter was 99.62% unmethylated (AKB-6899) v. 99.89% (vehicle). In FIG. 3C, the DSP promoter was 99.90% unmethylated (AKB-6899) v. 42.04% (vehicle). In FIG. 3D, the DSP promoter was 92.48% unmethylated (AKB-6899) v. 98.48% (vehicle). In FIG. 3E, when compared to the vehicle (DMSO), treatment of PyMT cells with AKB-6899 increased DSP expression.
To determine whether the decrease in DNMT expression and the increase in DSP expression were relevant in human cancer, the level of desmoplakin expression in MDA-MB-231 human triple negative breast cancer cells was determined. […] (FIG. 3B).

desmoplakin protein = test: Desmoplakin protein expression in cultured PyMT tumor cells; assay type: cell-based, mouse; settings: 10 μM, 24 hours (FIG. 5A)
Protocol: FIGS. 5A-5B show desmoplakin protein expression following AKB-6899 treatment. In FIG. 5A, cultured PyMT tumor cells were treated for 24 hours with DMSO or AKB-6899 (10 μM). AKB-6899 increased desmoplakin protein expression.
The gene expression signatures from the tumors of PyMT breast tumor-bearing mice that were treated with either vehicle or AKB-6899 were evaluated. […] Methylation-specific PCR on the desmoplakin promoter was performed. The level of hypomethylation was near complete.

c-Myc promoter [3] = test: Percent CpG methylation of c-Myc promoter in HeLa cells; assay type: cell-based, human; settings: 5 or 25 μM, compared to DMSO and PBA (FIG. 6A)
Protocol: HeLa cervical cancer cells were left untreated, were treated with DMSO, were treated with 5-AZA, were treated with AKB-6899 (5 or 25 μM), or were treated with PBA (2 mM).

c-Myc promoter [4] = test: Percent DNA methylation of c-Myc promoter in human cervical tumors in animals; assay type: in vivo; settings: animal models of human cervical tumors, 17.5 mg/kg (FIG. 7A)
Protocol: (§2) Animal models of human cervical tumors were untreated, treated with DMSO, treated with 5-AZA or treated with AKB-6899 (17.5 mg/kg).

c-Myc = c-Myc expression (relative copy number) in human cervical tumors in animals; assay type: in vivo; settings: animal models of human cervical tumors, 17.5 mg/kg (FIG. 7B)
Protocol: as §2

DNMT-3a [5] = test: DNMT-3a transcription in A549 lung cancer cells; assay type: cell-based, human; settings: A549 cells (FIG. 10B)
Text: In FIG. 10A, AKB-6899 inhibited DNMT-1, DNMT-3a, and DNMT-3b transcription in a dose-dependent manner in human squamous cell carcinoma lung cancer cells (H1703), in vitro. The DMSO-treated DNMT mRNAs are over 1.0, meaning the level of expression is higher than the housekeeping control gene, CAP1. In FIG. 10B, AKB-6899 inhibited DNMT-3a and DNMT-3b transcription in human adenocarcinoma lung cancer cells (A549). The DMSO-treated DNMT mRNAs are under 1.0, meaning the level of expression is lower than the housekeeping control gene, CAP1.

[6] = test system: panel of 14 common tumor suppressor genes; test: mRNA expression of 14 tumor suppressor genes in A549 cells; assay type: cell-based, human; settings: for CDKN1C mRNA expression level: DMSO standardized to 1.0
Text: FIGS. 12A-12D show the level of mRNA expression for a panel of 14 common tumor suppressor genes in two types of human lung cancer cells (i.e., H1703 squamous cell carcinoma in FIG. 12A and A549 adenocarcinoma in FIG. 12B). […] All of the tumor suppressor mRNAs were augmented in response to AKB-6899 but one, the CDKN1C gene in A549 adenocarcinoma cells, in which expression levels were 0.1 (AKB10) and 0.9 (AKB50) compared to DMSO standardized to 1.0. In FIGS. 12A-12B, the following apply: “1”=DMSO, “2”=AKB-6899 (10 μM), “3”=AKB-6899 (50 μM), and “4”=combination of Decitabine (5 μM)/PBA (2 mM). FIGS. 12C and 12D are raw values for mRNA expression of these 14 genes.

DNMT-3a [7] = test: DNMT-3a mRNA expression in lungs of normal mice after systemic administration; assay type: in vivo, mouse; settings: i.p. 17.5 mg/kg three times per week for three weeks, vs DMSO
Protocol: (§3) FIGS. 14A-14C show the effects of systemic administration of AKB-6899. Mice were treated three times per week for three weeks with either i.p. AKB-6899 or i.p. DMSO. The lungs were removed and assayed to determine DNMT mRNA expression, percent CpG methylation, and fold change in mRNA. […] The data was standardized to 1.0 by the DMSO levels of the respective gene expression, (n=4 lungs per condition).

DNMT-3b [8] = test: DNMT-3b mRNA expression in lungs of normal mice after systemic administration; assay type: in vivo, mouse; settings: i.p. 17.5 mg/kg three times per week for three weeks, vs DMSO
Protocol: as §3

PyMT tumor cells = test: Trypan Blue cell death check in PyMT tumor cells; assay type: cell-based; settings: compared to control cells
Protocol: as §1

O=C(O)CNC(=O)c1ncc(-c2cccc(F)c2)cc1O [AKB-6899, {[5-(3-Fluorophenyl)-3-hydroxypyridine-2-carbonyl]amino}acetic acid]
DNMT-3b mRNA level (DNMT-3b [1]): no difference | methylation state of DSP promoter CpG islands (in words) ([2]; MDA-MB-231 cells): almost entire demethylation; also recorded: near complete | desmoplakin promoter methylation after treatment ([2]; MDA-MB-231 human triple negative breast cancer cells): 0.38% | DSP promoter unmethylated ([2]; MDA-MB-231 triple negative breast cancer cells, 25 μM (FIG. 3B)): 99.62% | desmoplakin protein expression (desmoplakin protein): upregulation; also recorded: increased | demethylation of c-Myc promoter (percent CpG methylation) (c-Myc promoter [3]): increase in demethylation | DNA methylation of c-Myc promoter (c-Myc promoter [4]): completely demethylated | c-Myc expression (c-Myc): inhibited | DNMT-3a transcription (DNMT-3a [5]): inhibited | CDKN1C mRNA expression level ([6]; A549, 10 μM (AKB10)): 0.1 | tumor suppressor mRNA expression ([6]; A549, 10 μM and 50 μM, vs DMSO, all genes but CDKN1C): augmented | CDKN1C mRNA expression level ([6]; A549, 50 μM (AKB50)): 0.9 | DNMT-3a expression in lungs (DNMT-3a [7]): inhibited | DNMT-3b expression in lungs (DNMT-3b [8]): inhibited | cell death by Trypan Blue (PyMT tumor cells): no cell death
